Where “and” joins values, the source holds several entries; their conditions need not be identical. Identical values can stand only once.
Experiments:
PINK1−/− mice = test: Heart health and performance in mice treated from birth; format: in vivo
Protocol: PINK1 expression is protective in several mouse models of heart failure. PINK1wt expression will block pathological hypertrophy, increase heart fractional shortening, and prevent ischemia induced death of heart tissue. To assay the effect of kinetin PINK1 wt or PINK1−/− mice were treated with vehicle, adenine or kinetin from birth following published protocols for administration of kinetin (Hims et al., 2007; Shetty et al., 2011). The mice were sacrificed and whole hearts analyzed, and isolated cardiomyocytes from mice at appropriate time periods (e.g. 2 and 6 months). O2 consumption, mitochondrial integrity (mtDNA abundance, mitochondrial capacity and JC-1 fluorescence) caspase 3/7 cleavage activity and TUNEL staining were measured to assess the health of these tissues. According to published results (Billia et al., 2011; Chen and Dorn, 2013), PINK1 activity is essential for normal 02 consumption and maintenance of mitochondrial integrity. Decreased 02 consumption and mitochondrial integrity in PINK1−/− mice was compared to PINK1wt mice. […] Additionally, caspase 3/7 cleavage activity and TUNEL staining of the left ventricle were increased in PINK1−/− mice derived cardiomyocytes compared to PINK1wt.
In addition to these analyses we analyzed the performance of the heart in whole animals. We utilized the same procedure as above and treated either PINK1wt or PINK1−/− mice with vehicle, adenine or kinetin from birth following published protocols for administration of kinetin (Hims et al., 2007; Shetty et al., 2011). […] These characteristics of pathological hypertrophy indicate heart failure in the PINK1−/− mice will not increase as dramatically in PINK1wt mice (Billia et al., 2011). […] These experiments indicate that amplification of PINK1 activity by treatment with kinetin can block age-induced loss in heart function.

PINK1^G309D = PINK1^G309D (Homo sapiens, UniProt Q9BXM7, G309D); test: Parkin mitochondrial translocation assay in HeLa cells after CCCP depolarization; format: cell-based; parameters: transfection with MitoGFP, mCherry Parkin, and full length PINK1FLAG3 in a 1:4:2 ratio; expressed in transfected cells; host or cells: HeLa; settings: for 50% Recruitment Times (R50) mCherry Parkin to depolarized mitochondria: HeLa cells with PINK1^G309D, mCherryParkin, mitoGFP, 48 hours, 25 μM; for delta co-localization: PINK1^G309D expressing cells, algorithm quantified
Chain of PINK1^G309D (Q9BXM7 78-581 G309D): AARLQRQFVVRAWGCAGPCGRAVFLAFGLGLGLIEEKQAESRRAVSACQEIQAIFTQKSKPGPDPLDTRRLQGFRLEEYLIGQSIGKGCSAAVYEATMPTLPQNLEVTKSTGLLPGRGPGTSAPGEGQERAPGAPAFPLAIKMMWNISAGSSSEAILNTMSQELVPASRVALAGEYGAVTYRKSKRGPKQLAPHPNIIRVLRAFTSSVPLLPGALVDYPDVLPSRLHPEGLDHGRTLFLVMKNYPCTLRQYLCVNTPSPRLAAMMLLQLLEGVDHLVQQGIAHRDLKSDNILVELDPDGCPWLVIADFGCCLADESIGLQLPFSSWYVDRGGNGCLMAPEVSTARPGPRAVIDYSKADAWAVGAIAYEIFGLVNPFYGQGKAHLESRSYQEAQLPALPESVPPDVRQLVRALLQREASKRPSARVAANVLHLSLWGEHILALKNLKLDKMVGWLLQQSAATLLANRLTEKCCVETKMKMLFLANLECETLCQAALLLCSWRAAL
Protocol: (§1) Parkin phosphorylation and mitochondrial translocation assay: HeLa cells were grown in DMEM supplemented with 10% FBS. Log phase cells were plated in 24 well plates with glass coverslips (Mattek) pretreated with fibronectin. Cells were pretreated with 50 μM of the indicated compound, followed by transfection with MitoGFP, mCherry Parkin, and full length PINK1FLAG3 in a 1:4:2 ratio using Fugene 6 (Promega). Fields of cells were selected by expression of MitoGFP (6 fields/well-3 wells/condition) and imaged at five-minute intervals following depolarization with 5 μM CCCP. Quantification was performed according to published protocols^3 and by creation of a Matlab based script.
(§2) Our ability to enhance PINK1 activity in-vitro using KTP led us to investigate means by which to achieve enhanced activity in cells expressing PINK1. […] We treated cells with either kinetin or adenine (FIG. 2A) and measured Parkin localization following mitochondrial depolarization with CCCP (FIG. 2B). HeLa cells, which have low levels of endogenous PINK1 and PARKIN, were transfected with wildtype or PINK1^G309D, mCherryParkin, and mitoGFP. After 48 hours of incubation with 25 μM adenine, kinetin or equivalent DMSO, we imaged CCCP-mediated depolarization of mitochondria (FIGS. 2C, 2D) and calculated the percentage of GFP labelled mitochondria with mCherryParkin associated (FIG. 2E). In line with previous reports^3, transfection of PINK1^G309D slowed the 50% recruitment (R50) time of mCherryParkin to depolarized mitochondria (23±2 min vs 15±1 min R50) (FIGS. 2C-2E Table.2). […] Using an algorithm to accurately quantify the time dependent change in co-localization, we calculated that PINK1^wt expressing cells achieved a mean change in co-localization of 0.112 with DMSO or adenine and 0.13 with kinetin treatment (FIGS. 7A-7F); PINK1^G309D expressing cells treated with DMSO or adenine achieved delta co-localization of 0.076, but upon addition of kinetin returned to near-PINK1-wildtype levels (0.124).
(§3) To test the PINK1-dependency of our findings, we assayed PINK1 activity by using phospho specific antibodies raised against Parkin's PINK1-specific S65 phosphosite^21 after immuno-precipitating Parkin. […] To test whether kinetin stimulated Parkin localization was due to reversible binding of kinetin to PINK1, we treated the cells with fresh medium for 96 hours before performing a new recruitment assay. Similar recruitment rates were observed following the washout (FIG. 2F). […] We followed previously published methods to calculate the percentage of GFP labeled mitochondria with mCherryParkin associated. Transfection of G309DPINK11-581 slowed the rate of mCherryParkin recruitment (23+2 min vs 15+1 min R50) as per reported results. The addition of kinetin, but not adenine, increased the rate of mCherryParkin recruitment in wt cells from 15+1 to 10+2 min and G309D cells from 23+2 to 15+2 min. We then incubated the cells with kinetin for 2 days, washed the cells with fresh medium then performed the recruitment assay and saw the same increase in the rate of recruitment. […] We developed an algorithm to calculate the change in co-localization. The wtPINK1 cells achieved a mean change in co-localization of 0.11 with DMSO, adenine or kinetin treatment. G309DPINK1 expressing cells treated with DMSO or Adenine, achieved delta co-localization of 0.075 but upon addition of kinetin indicating rescue to the wt level (0.11) (P>0.05).

PINK1^wt = PINK1^wt (Homo sapiens, UniProt Q9BXM7); test: as above; format: cell-based; parameters: transfection with MitoGFP, mCherry Parkin, and full length PINK1FLAG3 in a 1:4:2 ratio; expressed in transfected cells; host or cells: HeLa; settings: for 50% Recruitment Times (R50) mCherry Parkin to depolarized mitochondria: HeLa cells with PINK1^wt, mCherryParkin, mitoGFP, 48 hours, 25 μM; for mean change in co-localization: PINK1^wt expressing cells, algorithm quantified
Chain of PINK1^wt (Q9BXM7 78-581): as the sequence (Q9BXM7 78-581 G309D) above, with D232G counted along it
Protocol: as §1, §2, §3

PINK1wt mice = test: Heart stress model (trans-aortic banding, angiotensin II); format: in vivo; settings: two weeks dosing, TAB or Angiotensin II; for pathological hypertrophy: 14 days
Source text: Stress on the heart also induces pathological hypertrophy and increased apoptosis, and serves as a good model for heart disease. We utilized trans-aortic banding (TAB) and treatment with angiotensin II to increase pressure in the heart and a model for heart attack by induced myocardial infarction. We treated mice as above with kinetin as well as adenine and vehicle controls for two weeks. We then increased pressure in the heart by performing surgery to partially occlude the aorta (TAB) or sham operation. Additionally we directly injected of a bolus of Angiotensin II or saline into the heart (Billia et al., 2011) to increase blood pressure. […] As the depletion of PINK1 leads to more pathological hypertrophy and increased apoptosis, by amplifying PINK1 activity these characteristics of heart failure will be further reduced.

Nc1ncnc2nc[nH]c12 [adenine, reference compound]
age induced pathological hypertrophy (PINK1−/− mice): no effect | 50% Recruitment Times (R50) mCherry Parkin to depolarized mitochondria (PINK1^G309D): 23 ± 2 min | delta co-localization (PINK1^G309D): 0.076 | delta co-localization (PINK1^G309D; listed as Adenine): 0.075 | 50% Recruitment Times (R50) mCherry Parkin to depolarized mitochondria (PINK1^wt): 15 ± 1 min | mean change in co-localization (PINK1^wt): 0.112 and 0.11 | pathological hypertrophy (PINK1wt mice): not

c1coc(CNc2ncnc3[nH]cnc23)c1 [kinetin]
age induced pathological hypertrophy (PINK1−/− mice): no effect | 50% Recruitment Times (R50) mCherry Parkin to depolarized mitochondria (PINK1^G309D): 15±2 min and 15+2 min | delta co-localization (PINK1^G309D): 0.124 and 0.11 | 50% Recruitment Times (R50) mCherry Parkin to depolarized mitochondria (PINK1^wt): 10±2 min and 10+2 min | mean change in co-localization (PINK1^wt): 0.13 and 0.11 | total number of TUNEL positive cells, left ventricle (PINK1wt mice): reduced the total number of TUNEL positive cells | pathological hypertrophy (PINK1wt mice): reduces the pathological hypertrophy

Reference: patent US11427588B2, “Compositions and methods for treating neurodegenerative diseases and cardiomyopathy” (THE REGENTS OF THE UNIVERSITY OF CALIFORNIA, priority 2013, dated 2022)
